Residues, ends and D or L forms follow the SMILES beside them. No end group written: not given here.
Legend:
[1] = target: T1, GST-Rho-kinase-cat-L (bovine, residues 6–553) (Bos taurus, UniProt Q28021); assay: In vitro kinase assay, Rho-kinase-cat-L activity; format: biochemical; conditions: for Inhibition of Rho-kinase-cat-L activity (in words) / IC50: S6 rsk substrate peptide as substrate, 50 μM γ-[32P]ATP, 30 °C, scintillation counting, N = 3; for Inhibition of Rho-kinase-cat-L activity (in words): inhibitor at the indicated concentrations; for IC50: 10–20 min, cation-exchange membrane
T1 construct: GST-Rho-kinase-cat-L (bovine, residues 6–553); made in house; host or cells: Sf9 cells (baculovirus)
Experimental: The kinase reactions were performed in 50 μL of a reaction mixture (25 mM Tris-HCl, pH 7.5, 1 mM EDTA, 1 mM EGTA, 1 mM DTT, 5 mM MgCl2, and 50 μM γ-[^32P]ATP [1–20 GBq/mmol]), GST-Rho-kinase-cat-L or other kinases (1–10 nM), and substrates for 10–20 min at 30 °C. The reaction mixtures were applied to cation-exchange membranes and washed with 75 mM phosphoric acid three times, which was followed by scintillation counting.
Figure 4 Direct inhibition of Rho-kinase activity in vitro. (A) In vitro phosphorylation of S6 rsk substrate peptide by Rho-kinase. GST-Rho-kinase-cat-L or GST-ROCK1-cat-L activity was examined using the S6 rsk substrate peptide as a substrate in the presence of γ-[^32P]ATP. GST-MYPT1-684–868 aa-WT or -4A was added at the indicated concentrations. The reaction mixtures were applied onto cation-exchange membranes, followed by scintillation counting. N = 3. (B) Effects of the deletion of DMs on the inhibition of Rho-kinase activity in vitro. GST-Rho-kinase-cat-L activity was examined using the S6 rsk substrate peptide as a substrate in the presence of γ-[^32P]ATP. GST-MYPT1-684–868-4A with or without DMs was added at the indicated concentrations. The reaction mixtures were applied onto cation-exchange membranes, followed by scintillation counting. N = 3. The deletion of DM1 or DM2 moderately weakened the inhibitory effect and the deletion of both DM1 and DM2 completely abrogated the inhibitory effects of the MYPT1 fragment on the Rho-kinase activity. (C) Sequences of the DMs and phosphorylation sites of MYPT1. The sequences of MYPT1 683–715 aa and 836-860 aa and synthetic peptides are shown. Basic (blue), acidic (red), and aliphatic (green) amino acids within DMs are indicated. Phosphorylation sites are replaced by Ala in pseudosubstrate (PS) peptides. (D) Inhibition of Rho-kinase activity by PS2 + DM2 synthetic peptide. GST-Rho-kinase-cat-L activity was examined using the S6 rsk substrate peptide as a substrate in the presence of γ-[^32P]ATP. Synthetic peptides were added at the indicated concentrations. The reaction mixtures were applied onto cation-exchange membranes, followed by scintillation counting. N = 3. (E) Inhibition of Rho-kinase activity by PS1 + DM3 synthetic peptide. GST-Rho-kinase-cat-L activity was examined using the S6 rsk substrate peptide as a substrate in the presence of γ-[^32P]ATP. Synthetic peptides were added at the indicated concentrations. The reaction mixtures were applied onto cation-exchange membranes, followed by scintillation counting. N = 3.

[2] = target: T1, GST-Rho-kinase-cat-L (bovine, residues 6–553); assay: In vitro kinase assay, Rho-kinase-cat-L activity; format: biochemical; conditions: synthetic peptide at the indicated concentrations, Figure S4, N=3
[3] = target: GFP-Rho-kinase-cat-L (6–553 aa, long form of catalytic fragment) (bovine)
NIH3T3 cells = assay: Actin stress fiber formation in NIH3T3 cells; format: cell-based; conditions: GST-MYPT1 fragment expressed in NIH3T3 cells, 24 h, phalloidin staining, N = 4
Experimental: NIH3T3 cells were seeded on polylysine-coated 13-mm coverslips at a density of 4 × 10^4 cells/well in a 6-well dish and cultured in DMEM with 10% calf serum overnight. The cells were transfected with plasmid using LIPOFECTAMINE LTX reagent (Thermo Fisher Scientific, Waltham, MA, USA), according to the manufacture’s protocol. After 24 h, the cells were incubated in fresh DMEM containing 10% calf serum for 20 min, fixed with 3.7% formaldehyde in PBS for 10 min and then treated with PBS containing 0.2% Triton X-100 for 10 min. The fixed cells were blocked with 1% bovine serum albumin for 30 min and stained with the indicated antibodies. Cover slips were mounted with Fluoromount (Diagnostic Biosystems, Pleasanton, CA, USA) and the fluorescence was examined using a confocal laser scanning microscope LSM 780 and LSM5 PASCAL built around an Axio Observer Z1 or Axiovert 200M under the control of LSM software (Carl Zeiss, Oberkochen, Germany). Images were processed using ImageJ or Photoshop (Adobe, San Jose, CA, USA).
Figure 3 Inhibition of MYPT1 phosphorylation by the Rho-kinase-binding fragment of MYPT1. (A,B) Effect of the overexpression of Rho-kinase-binding MYPT1 fragments on GFP-MYPT1 phosphorylation in COS7 cells. Full-length GFP-MYPT1 and the GST-MYPT1 Rho-kinase binding fragment were transiently expressed in COS7 cells. The cell lysates were analyzed by immunoblot analysis using anti-MYPT1-pT855 (top panel), anti-GFP (middle), or anti-GST (bottom) antibodies. The phospho-GFP-MYPT1 levels were quantified and normalized by GFP-MYPT1 levels. Data represent means ± SD. **, p < 0.01, ***, p < 0.001 as compared with the control. (C) Effect of the overexpression of Rho-kinase-binding MYPT1 fragments on stress fiber formation in NIH3T3 cells. GST-MYPT1 fragments were expressed in NIH3T3 cells. The cells were fixed in formaldehyde, and immunostained with phalloidin and anti-GST antibody. […] The percentages of cells with stress fibers throughout the cell (SF(++)), cells with stress fibers partly in the cell (SF(+)), and cells without stress fibers (SF(–)) were analyzed. […]

[4] = system: phosphorylation of GFP-MYPT1 at Thr855 in COS7 cells; assay: Phosphorylation of GFP-MYPT1 in COS7 cells; format: cell-based; conditions: GST-MYPT1 fragment coexpressed with full-length GFP-MYPT1 in COS7 cells, 24 h, immunoblot anti-MYPT1-pT855 normalized by GFP-MYPT1
Experimental: COS7 cells were seeded on a 6-well dish at a density of 1.8 × 10^5 cells/well in DMEM with 10% fetal bovine serum and cultured overnight. The cells were transfected with plasmids using LIPOFECTAMINE 2000^TM reagent, according to the manufacture’s protocol. After 24 h, the cells were washed twice with PBS, lysed in SDS–PAGE sample buffer and, subjected to immunoblot analysis using the indicated antibodies. The signals were visualized using HRP-conjugated secondary antibody and ECL prime detecting reagent (Cytiva, Marlborough, MA, USA) by X-lay film or imaging analyzer LAS 4010 (Cytiva, Marlborough, MA, USA). Signal intensities of phospho-GFP-MYPT1 and GFP-MYPT1 were analyzed using Fiji software and quantified from standard curves. The phospho-GFP-MYPT1 levels were normalized by GFP-MYPT1 levels.
Figure 3 Inhibition of MYPT1 phosphorylation by the Rho-kinase-binding fragment of MYPT1. […] The cell lysates were analyzed by immunoblot analysis using anti-MYPT1-pT855 (top panel), anti-GFP (middle), or anti-GST (bottom) antibodies. The phospho-GFP-MYPT1 levels were quantified and normalized by GFP-MYPT1 levels. […] The percentages of cells with stress fibers throughout the cell (SF(++)), cells with stress fibers partly in the cell (SF(+)), and cells without stress fibers (SF(–)) were analyzed. […]

T1 sequence (Q28021 6-553): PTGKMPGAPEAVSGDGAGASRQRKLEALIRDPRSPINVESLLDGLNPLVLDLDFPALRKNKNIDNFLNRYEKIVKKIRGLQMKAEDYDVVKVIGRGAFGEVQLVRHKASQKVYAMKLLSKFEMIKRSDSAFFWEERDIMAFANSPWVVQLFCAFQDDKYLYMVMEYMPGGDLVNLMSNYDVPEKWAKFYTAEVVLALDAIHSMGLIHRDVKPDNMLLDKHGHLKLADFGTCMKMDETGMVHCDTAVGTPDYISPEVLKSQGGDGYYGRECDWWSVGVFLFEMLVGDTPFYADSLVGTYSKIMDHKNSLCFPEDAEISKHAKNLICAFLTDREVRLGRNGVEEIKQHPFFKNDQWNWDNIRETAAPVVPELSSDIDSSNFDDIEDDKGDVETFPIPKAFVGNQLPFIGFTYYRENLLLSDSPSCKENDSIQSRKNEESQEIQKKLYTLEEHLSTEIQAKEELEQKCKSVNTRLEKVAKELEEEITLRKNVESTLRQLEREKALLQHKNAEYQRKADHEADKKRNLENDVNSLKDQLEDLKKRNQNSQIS

Molecule: KSQPKSIRERRRPR [DM2, synthetic peptide, MYPT1 836–849 aa, docking motif 2]
- Inhibition of Rho-kinase-cat-L activity (in words) [1]: moderately inhibited

Molecule: QSRRAAQGVTLTDLQEAEKTIGRS [PS1 + DM1, synthetic peptide, MYPT1 692–715 aa, pseudosubstrate 1 plus docking motif 1]
- Inhibition of Rho-kinase activity at higher concentration (in words) ([1]; 100 μM peptide, data not shown): mild inhibitory effect
- Inhibition of Rho-kinase-cat-L activity (in words) [1]: did not show an inhibitory effect

Molecule: CC[C@H](C)[C@H](NC(=O)[C@H](CO)NC(=O)[C@H](CCCCN)NC(=O)[C@@H]1CCCN1C(=O)[C@H](CCC(N)=O)NC(=O)[C@H](CO)NC(=O)[C@@H](N)CCCCN)C(=O)N[C@@H](CCCNC(=N)N)C(=O)N[C@@H](CCC(=O)O)C(=O)N[C@@H](CCCNC(=N)N)C(=O)N[C@@H](CCCNC(=N)N)C(=O)N[C@@H](CCCNC(=N)N)C(=O)N1CCC[C@H]1C(=O)N[C@@H](CCCNC(=N)N)C(=O)N[C@@H](CCC(=O)O)C(=O)N[C@@H](CCCCN)C(=O)N[C@@H](CCCNC(=N)N)C(=O)N[C@@H](CCCNC(=N)N)C(=O)N[C@@H](C)C(=O)N[C@@H](C)C(=O)NCC(=O)N[C@H](C(=O)N[C@@H](CO)C(=O)N[C@@H](Cc1ccccc1)C(=O)N[C@@H](Cc1c[nH]c2ccccc12)C(=O)O)C(C)C [PS2 + DM2] (H-KSQPKSIRERRRPREKRRAAGVSFW-OH; N-terminus and C-terminus assumed)
- IC50 [1]: < 1000 nM
- Inhibition of Rho-kinase-cat-L activity (in words) [1]: strongly inhibited
- Inhibition of phosphorylation of MLC by Rho-kinase ([2]; substrate GST-MLC (1 µM)): inhibited
- Inhibition of phosphorylation of MYPT1 by Rho-kinase ([2]; substrate GST-MYPT1-684-868 aa (0.5 µM)): inhibited
- Inhibition of phosphorylation of Scrib by Rho-kinase ([2]; substrate GST-Scrib-C (1235-1630 aa) (1 µM)): inhibited

Molecule: CC(C)C[C@H](NC(=O)[C@@H](NC(=O)[C@@H](NC(=O)CNC(=O)[C@H](CCC(N)=O)NC(=O)[C@H](C)NC(=O)[C@H](C)NC(=O)[C@H](CCCNC(=N)N)NC(=O)[C@H](CCCNC(=N)N)NC(=O)[C@H](CO)NC(=O)[C@H](CCC(N)=O)NC(=O)[C@H](CCCNC(=N)N)NC(=O)[C@H](C)NC(=O)[C@H](CCC(N)=O)NC(=O)[C@H](CCCNC(=N)N)NC(=O)[C@H](CO)NC(=O)[C@H](CCCNC(=N)N)NC(=O)[C@H](C)NC(=O)[C@H](CCCCN)NC(=O)[C@@H](N)CCCNC(=N)N)C(C)C)[C@@H](C)O)C(=O)N[C@H](C(=O)O)[C@@H](C)O [PS1 + DM3] (H-RKARSRQARQSRRAAQGVTLT-OH; N-terminus and C-terminus assumed)
- IC50 [1]: < 1000 nM
- Inhibition of Rho-kinase-cat-L activity (in words) [1]: inhibited Rho-kinase activity to a similar extent as PS2 + DM2

Molecule: KSQPKSIRERRRPREKRRAAGVSFW (not fully specified) [PS2 + DM2 synthetic peptide (MYPT1 836–860 aa)]
- IC50 of inhibition of the in vitro kinase activity of GST-Rho-kinase-cat-L on the S6 rsk substrate peptide (Figure 4D) [3]: < 1000 nM

Molecule: RKARSRQARQSRRAAQGVTLT (not fully specified) [PS1 + DM3 synthetic peptide (MYPT1 683–703 aa)]
- IC50 of inhibition of the in vitro kinase activity of GST-Rho-kinase-cat-L on the S6 rsk substrate peptide (Figure 4E) [3]: < 1000 nM

B1: MYPT1-684–868 aa: GST-fused rat MYPT1 fragment 684–868 aa containing DMs and four phosphorylation sites (protein)
chain: KARSRQARQSRRSTQGVTLTDLQEAEKTIGRSRSTRTREQENEEKDKEEKEKQDKEKQEEKKESEVSREDEYKQKYSRTYDETYARYRPVSTSSSSTPSSSSLSTLGSSLYASSQLNRPNSLVGITSAYSRGLTKDNEREGEKKEEEKEGEDKSQPKSIRERRRPREKRRSTGVSFWTQDSDENE
modifications: left off: GST, end not stated, kept
notes: GST-fused rat MYPT1 fragment 684–868 aa containing DMs and four phosphorylation sites
- Effect on actin stress fiber formation (NIH3T3 cells): reduced actin stress fibers
- Effect on phosphorylation of GFP-MYPT1 at Thr855 [4]: strongly inhibited
- Inhibition of Rho-kinase-cat-L activity (in words) [1]: inhibited the Rho-kinase-cat-L activity in a dose-dependent manner

B2: MYPT1-655-715 aa: GST-fused MYPT1 fragment 655–715 aa (protein, UniProt Q10728 655-715, looked up, fragment)
chain: GTLSSTSEVRERRRSYLTPVRDEESESQRKARSRQARQSRRSTQGVTLTDLQEAEKTIGRS
modifications: also: GST fusion
notes: GST-fused MYPT1 fragment 655–715 aa
- Effect on actin stress fiber formation (NIH3T3 cells): rather enhanced stress fiber formation
- Effect on phosphorylation of GFP-MYPT1 at Thr855 [4]: decreased the phosphorylation of MYPT1
